Source: PubChem BioAssay (NCI)
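Values below derive from 48-hour exposures of cells grown in 96-well plates, with endpoints linearly interpolated between the two concentrations bracketing the appropriate inhibition level. GI50 is the concentration that inhibits growth by half. TGI: total growth inhibition.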

Key:
Assay in all cases: NCI-60 cell line screen, 48 h
[1] = system: A498 renal
[2] = system: CCRF-CEM leukemia
[3] = system: HCT-116 colon
[4] = system: HCT-15 colon
[5] = system: HL-60(TB) leukemia
[6] = system: MOLT-4 leukemia
[7] = system: NCI-H23 lung
[8] = system: OVCAR-4 ovarian
[9] = system: RPMI-8226 leukemia
[10] = system: RXF 393 renal
[11] = system: SF-539 CNS
[12] = system: U251 CNS

Compound | TGI [1] [µM] | TGI [2] [µM] | TGI [3] [µM] | TGI [4] [µM] | TGI [5] [µM] | TGI [6] [µM] | TGI [7] [µM] | TGI [8] [µM] | TGI [9] [µM] | TGI [10] [µM] | TGI [11] [µM] | TGI [12] [µM] | GI50 [2] [µM] | GI50 [3] [µM] | GI50 [4] [µM] | GI50 [5] [µM] | GI50 [6] [µM] | GI50 [8] [µM] | GI50 [9] [µM] | GI50 [12] [µM]
CC(=O)OC1CC(OC2C(O)CC(OC3C(O)CC(OC4CCC5(C)C(CCC6C5CCC5(C)C(C7=CC(=O)OC7)CCC65O)C4)OC3C)OC2C)OC(C)C1OC1OC(CO)C(O)C(O)C1O (centres undefined) | 0.131 | > 100 | 0.0472 | 0.0679 | 0.0827 | > 100 | 0.0233 | 0.162 | 7.43 | 0.101 | 0.0352 | 0.137 | – | – | – | – | – | – | – | –
COCCNCc1ccc(-c2cc3nccc(Oc4ccc(NC(=O)C5(C(=O)Nc6ccc(F)cc6)CC5)cc4F)c3s2)nc1 | – | 7.06 | 3.92 | 4.57 | 5.12 | 4.26 | – | 4.79 | 5.07 | – | – | 3.79 | 2.55 | 1.78 | 1.68 | 2.29 | 1.46 | 1.67 | 2.05 | 1.89
CO/C=C1\OC(=O)C=C1OC | > 100 | > 100 | > 100 | > 100 | > 100 | > 100 | > 100 | > 100 | > 100 | > 100 | > 100 | > 31.6 | – | – | – | – | – | – | – | –
O=S(O)CCCSSSCCCS(=O)O | > 100 | > 100 | > 100 | – | > 100 | > 100 | > 100 | > 100 | – | > 100 | > 100 | > 100 | – | – | – | – | – | – | – | –
Cc1ccc(Nc2nc(=O)c3c([nH]c4ccccc43)s2)cc1 | 37.4 | 53.3 | – | 23.1 | 36.5 | > 100 | – | 55.4 | 23.6 | – | 31.6 | 25.5 | – | – | – | – | – | – | – | –
CC1(C)N=C(c2ccccc2)SC12S[C@@H]1CCCC[C@H]1S2 | 33.9 | > 100 | > 100 | > 100 | > 100 | > 100 | 31.3 | > 100 | > 100 | > 100 | > 100 | > 100 | – | – | – | – | – | – | – | –
COc1cc(NCCC(=O)O)c2ncccc2c1 | > 100 | > 100 | > 100 | > 100 | > 100 | > 100 | > 100 | > 100 | – | > 100 | – | > 100 | – | – | – | – | – | – | – | –
c1ccc2c(c1)SCCc1cn[nH]c1-2 | > 100 | > 100 | > 100 | > 100 | > 100 | > 100 | > 100 | > 100 | – | > 100 | > 100 | > 100 | – | – | – | – | – | – | – | –
NNC(=O)CCc1ccc2ccc3ccccc3c2c1 | > 100 | > 100 | > 100 | > 100 | > 100 | > 100 | > 100 | > 100 | > 100 | > 100 | > 100 | > 100 | – | – | – | – | – | – | – | –
CN(c1ccccc1)c1nc(=[N+]2CCCC2)ss1 | > 100 | > 100 | > 100 | > 100 | > 100 | > 100 | – | > 100 | > 100 | 8.85 | – | > 100 | – | – | – | – | – | – | – | –
